Measured values published in patent EP0831877B1, “METABOLIC EFFECTS OF CERTAIN GLUTATHIONE ANALOGS” (TELIK, INC., priority 1995, dated 1996).

How the values were obtained:
[1] = in vitro half-life in human blood; format: in vitro ADME
[2] = in vitro half-life / metabolism in mouse blood; format: in vitro ADME
[3] = test system: HT-29 (human colon adenocarcinoma) cells; test: modified clonogenic assay, potentiation of chlorambucil cytotoxicity; format: cell-based
Experimental: HT-29 (human colon adenocarcinoma) cells were obtained from Dr. Roberto Ceriani (Cancer Research Fund of Contra Costa County, Walnut Creek, CA) and were used in log phase of growth unless otherwise specified. Chlorambucil (CMB) was obtained from Sigma (St. Louis, MO) and was dissolved in 100% ethanol. All GST inhibitors were dissolved in ethanol, DMSO, or water just prior to use. The same amount of solvent added to culture medium served as the vehicle control.
In a modified clonogenic assay for cytotoxicity, cells were suspended at 2 x 10^5 cells/ml in serum-free medium in the presence of vehicle or inhibitor. […] Cells were incubated for 2 hours, then varying doses of CMB were added. At the end of a second 2-hour incubation, cells were diluted to 7.5-10 x 10^3/ml in serum-containing medium and plated in quadruplicate at 200 µl/well in Microtest III microtiter plates.
Plates were incubated for 6 days and assayed by a modified methylene blue method. Briefly, cells were fixed with 1.25% glutaraldehyde in PBS then stained with 0.05% methylene blue in distilled water. Plates were washed several times in distilled water to remove unretained dye and retained dye was resolubilized in 0.03 N HCl. Plates were read at 650 nm in a Molecular Devices Vmax plate reader (Molecular Devices, Redwood City, CA). […] A dose modification factor (DMF), a measure of potentiation of cytotoxicity, was calculated for each inhibitor by dividing the IC50 value of CMB without inhibitor treatment by the IC50 value for CMB with inhibitor treatment.

half-life, comparison of the three compounds [1]: approximately the same | half-life compared with TER199 [2]: longer half-lives than TER199
Structure (SMILES): CCNC(=O)C(N)CCC(=O)NC(CSCc1ccccc1)C(=O)N[C@@H](C(=O)OCC)c1ccccc1 (stereo partly drawn) [TER300, γE ethyl amide-C(Bz)-R-(-)-ϕG ethyl ester]
rate of metabolism [2]: intermediate between that of TER199 and TER278 | amount required to achieve equivalent potentiation of chlorambucil, relative to TER199 [3]: Four times as much | DMF for chlorambucil toxicity ([3]; HT-29, 50 µM, mean ±SD of three experiments): 1.45 ± 0.16 | rate of metabolism (HT-29 cell culture): intermediate between that of TER199 and TER278
